This is an account of results in US10266526B2, “Substituted 1,2,3-triazoles as SMYD inhibitors for treating cancer” (EPIZYME, INC., priority 2014, dated 2019).

Molecules are shown by their SMILES.

In the assay the target is SMYD3 (Homo sapiens (Human), UniProt Q9H7B4). As to the kind of experiment: SMYD3 biochemical assay (SMYD3 enzyme assay on MEKK2 protein substrate, 3H-SAM scintillation proximity assay). The conditions noted are these: read-out: SMYD3 Biochem IC50. An outline of the steps: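 Native full-length human SMYD3, expressed in E. coli, was preincubated with compound for 30 min at room temperature in 25 mM Tris-Cl pH 8.0, 1 mM TCEP, 0.005% BSG and 0.005% Tween 20. ³H-SAM plus GST-MEKK2 then started the reaction. It was stopped with unlabeled SAM (100 uM final), and methylated MEKK2 was read by SPA.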
Chain of SMYD3 (Q9H7B4 whole entry): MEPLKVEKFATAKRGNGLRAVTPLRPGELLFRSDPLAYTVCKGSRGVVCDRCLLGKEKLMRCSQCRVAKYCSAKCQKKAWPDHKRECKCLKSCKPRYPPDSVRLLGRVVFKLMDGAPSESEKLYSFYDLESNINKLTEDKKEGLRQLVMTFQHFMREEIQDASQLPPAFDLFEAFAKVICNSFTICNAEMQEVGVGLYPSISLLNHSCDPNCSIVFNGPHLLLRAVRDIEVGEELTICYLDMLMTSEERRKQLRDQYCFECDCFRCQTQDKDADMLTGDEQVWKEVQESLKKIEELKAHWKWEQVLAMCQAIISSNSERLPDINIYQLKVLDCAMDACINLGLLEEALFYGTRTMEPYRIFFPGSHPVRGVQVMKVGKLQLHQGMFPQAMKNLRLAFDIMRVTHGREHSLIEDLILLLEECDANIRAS
For orientation: Scintillation proximity formats need no separation of bound from free tracer.
As usually defined, the IC50 is the concentration that gives 50% inhibition. In the case of `Nc1ccncc1C(=O)N[C@H]1CC[C@H](N)CC1` [compound 289, 4-amino-N-((1r,4r)-4-aminocyclohexyl)nicotinamide], the IC50 is more than 100 µM.

In the case of `NCCC(=O)N[C@H]1CC[C@H](NC(=O)c2cccc3[nH]ccc23)CC1` [compound 290, N-((1r,4r)-4-(3-aminopropanamido)cyclohexyl)-1H-indole-4-carboxamide], the IC50 is more than 100 µM. Regarding `N[C@H]1CC[C@H](NC(=O)c2cccc3[nH]ccc23)CC1` [compound 291, N-((1r,4r)-4-aminocyclohexyl)-1H-indole-4-carboxamide], the IC50 is more than 100 µM. With `N[C@H]1CC[C@H](NC(=O)c2ccnc(O)c2)CC1` [compound 292, N-((1r,4r)-4-aminocyclohexyl)-2-hydroxyisonicotinamide] the figure was more than 100 µM; with `NCCC(=O)N[C@H]1CC[C@H](NC(=O)c2ccc(O)nc2)CC1` [compound 294, N-((1r,4r)-4-(3-aminopropanamido)cyclohexyl)-6-hydroxynicotinamide], more than 100 µM; with `N[C@H]1CC[C@H](NC(=O)c2ccc(O)nc2)CC1` [compound 295, N-((1r,4r)-4-aminocyclohexyl)-6-hydroxynicotinamide], more than 100 µM. The value for `CC(NC(=O)c1ccccn1)C1CCN(C(=O)[C@H](C)N)CC1` (stereo partly drawn) [compound 296, N-(1-(1-(L-alanyl)piperidin-4-yl)ethyl)picolinamide] was more than 100 µM; that for `NCCC(=O)NC1CCC(NC(=O)c2ccccn2)CC1` (stereo not drawn) [compound 297, N-(4-(3-aminopropanamido)cyclohexyl)picolinamide] was 44.2 µM; that for `N[C@H]1CC[C@H](NC(=O)c2cnccn2)CC1` [compound 298, N-((1r,4r)-4-aminocyclohexyl)pyrazine-2-carboxamide] was more than 100 µM. Turning to `Cc1cccc(Cn2nc(C(C)(C)C)cc2C(=O)NC(C)C2CCN(C(=O)[C@H](C)N)CC2)c1` (stereo partly drawn) [compound 299, N-(1-(1-(L-alanyl)piperidin-4-yl)ethyl)-3-(tert-butyl)-1-(3-methylbenzyl)-1H-pyrazole-5-carboxamide], the IC50 was more than 100 µM. With `Cc1cccc2cc(C(=O)NC(C)C3CCN(C(=O)[C@H](C)N)CC3)[nH]c12` (stereo partly drawn) [compound 300, N-(1-(1-(L-alanyl)piperidin-4-yl)ethyl)-7-methyl-1H-indole-2-carboxamide] the figure was more than 100 µM; with `COc1cccc(C(=O)NC(C)C2CCN(C(=O)[C@H](C)N)CC2)n1` (stereo partly drawn) [compound 301, N-(1-(1-(L-alanyl)piperidin-4-yl)ethyl)-6-methoxypicolinamide], more than 100 µM. Take `COc1cnc(C(=O)NC(C)C2CCN(C(=O)[C@H](C)N)CC2)cn1` (stereo partly drawn) [compound 302, N-(1-(1-(L-alanyl)piperidin-4-yl)ethyl)-5-methoxypyrazine-2-carboxamide]: the IC50 was more than 100 µM. The value for `NCCC(=O)N[C@H]1CC[C@H](NC(=O)[C@H]2CC[C@H](N)CC2)CC1` [compound 303, (1r,4r)-4-amino-N-((1r,4r)-4-(3-aminopropanamido)cyclohexyl)cyclohexane-1-carboxamide] was more than 100 µM.

For `N[C@H]1CC[C@H](NC(=O)[C@H]2CC[C@H](N)CC2)CC1` [compound 304, (1r,4r)-4-amino-N-((1r,4r)-4-aminocyclohexyl)cyclohexane-1-carboxamide], the IC50 is more than 100 µM. With `CC(NC(=O)[C@@H]1C[C@H](F)CN1)C1CCN(C(=O)[C@H](C)N)CC1` (stereo partly drawn) [compound 305, (2S,4S)-N-(1-(1-(L-alanyl)piperidin-4-yl)ethyl)-4-fluoropyrrolidine-2-carboxamide] the figure was 55.9 µM. The value for `CC(NC(=O)[C@H]1Cc2ccccc2CN1)C1CCN(C(=O)[C@H](C)N)CC1` (stereo partly drawn) [compound 306, (3R)-N-(1-(1-(L-alanyl)piperidin-4-yl)ethyl)-1,2,3,4-tetrahydroisoquinoline-3-carboxamide] was 48.1 µM; that for `N[C@H]1CC[C@H](NC(=O)c2cccc3c2OC(F)(F)O3)CC1` [compound 307, N-((1r,4r)-4-aminocyclohexyl)-2,2-difluorobenzo[d][1,3]dioxole-4-carboxamide] was more than 100 µM; that for `N[C@H]1CC[C@H](NC(=O)c2ccncc2F)CC1` [compound 308, N-((1r,4r)-4-aminocyclohexyl)-3-fluoroisonicotinamide] was more than 100 µM. On to `CC(NC(=O)c1cncs1)C1CCN(C(=O)[C@H](C)N)CC1` (stereo partly drawn) [compound 309, N-(1-(1-(L-alanyl)piperidin-4-yl)ethyl)thiazole-5-carboxamide], for which the IC50 was more than 100 µM. In the case of `CC(NC(=O)c1ccc(O)cn1)C1CCN(C(=O)[C@H](C)N)CC1` (stereo partly drawn) [compound 310, N-(1-(1-(L-alanyl)piperidin-4-yl)ethyl)-5-hydroxypicolinamide], the IC50 was more than 100 µM. With `CC(NC(=O)C1=NNC(=O)CC1)C1CCN(C(=O)[C@H](C)N)CC1` (stereo partly drawn) [compound 311, N-(1-(1-(L-alanyl)piperidin-4-yl)ethyl)-6-oxo-1,4,5,6-tetrahydropyridazine-3-carboxamide], the IC50 is more than 100 µM.

As for `CC(NC(=O)c1n[nH]c2ccccc12)C1CCN(C(=O)[C@H](C)N)CC1` (stereo partly drawn) [compound 312, N-(1-(1-(L-alanyl)piperidin-4-yl)ethyl)-1H-indazole-3-carboxamide], the IC50 was more than 100 µM. With `CC(NC(=O)Cc1cc(F)cc(F)c1)C1CCN(C(=O)[C@H](C)N)CC1` (stereo partly drawn) [compound 313, N-(1-(1-(L-alanyl)piperidin-4-yl)ethyl)-2-(3,5-difluorophenyl)acetamide] the figure was 70.7 µM; with `CC(NC(=O)Cc1cccnc1)C1CCN(C(=O)[C@H](C)N)CC1` (stereo partly drawn) [compound 314, N-(1-(1-(L-alanyl)piperidin-4-yl)ethyl)-2-(pyridin-3-yl)acetamide], more than 100 µM. With `CC(NC(=O)Cc1cncnc1)C1CCN(C(=O)[C@H](C)N)CC1` (stereo partly drawn) [compound 315, N-(1-(1-(L-alanyl)piperidin-4-yl)ethyl)-2-(pyrimidin-5-yl)acetamide] the figure was more than 100 µM. The value for `CC(NC(=O)Cn1ccnc1)C1CCN(C(=O)[C@H](C)N)CC1` (stereo partly drawn) [compound 316, N-(1-(1-(L-alanyl)piperidin-4-yl)ethyl)-2-(1H-imidazol-1-yl)acetamide] was more than 100 µM; that for `NCCC(=O)N[C@H]1CC[C@H](NC(=O)c2cn3ccsc3n2)CC1` [compound 317, N-((1r,4r)-4-(3-aminopropanamido)cyclohexyl)imidazo[2,1-b]thiazole-6-carboxamide] was more than 100 µM; that for `N[C@H]1CC[C@H](NC(=O)c2cn3ccsc3n2)CC1` [compound 318, N-((1r,4r)-4-aminocyclohexyl)imidazo[2,1-b]thiazole-6-carboxamide] was more than 100 µM. As for `Cc1ncc(C(=O)N[C@H]2CC[C@H](N)CC2)cn1` [compound 320, N-((1r,4r)-4-aminocyclohexyl)-2-methylpyrimidine-5-carboxamide], the IC50 is more than 100 µM. The value for `NCCC(=O)N[C@H]1CC[C@H](NC(=O)c2ccnc(N)c2)CC1` [compound 321, 2-amino-N-((1r,4r)-4-(3-aminopropanamido)cyclohexyl)isonicotinamide] was 16.6 µM; that for `Nc1cc(C(=O)N[C@H]2CC[C@H](N)CC2)ccn1` [compound 322, 2-amino-N-((1r,4r)-4-aminocyclohexyl)isonicotinamide] was more than 100 µM; that for `CC(NC(=O)c1ccc(S(N)(=O)=O)cc1)C1CCN(C(=O)[C@H](C)N)CC1` (stereo partly drawn) [compound 323, N-(1-(1-(L-alanyl)piperidin-4-yl)ethyl)-4-sulfamoylbenzamide] was more than 100 µM. With `Cc1cc(C)c(C(=O)N[C@H]2CC[C@H](N)CC2)c(=O)[nH]1` [compound 324, N-((1r,4r)-4-aminocyclohexyl)-4,6-dimethyl-2-oxo-1,2-dihydropyridine-3-carboxamide] the figure was more than 100 µM.

With `Cn1ncc2ccc(C(=O)N[C@H]3CC[C@H](NC(=O)CCN)CC3)cc21` [compound 325, N-((1r,4r)-4-(3-aminopropanamido)cyclohexyl)-1-methyl-1H-indazole-6-carboxamide], the IC50 is more than 100 µM. With `COc1ccc2cc(C(=O)N[C@H]3CC[C@H](NC(=O)CCN)CC3)ccc2c1` [compound 326, N-((1r,4r)-4-(3-aminopropanamido)cyclohexyl)-6-methoxy-2-naphthamide] the figure was 28 µM; with `NCCC(=O)N[C@H]1CC[C@H](NC(=O)c2cc(=O)c3ccccc3o2)CC1` [compound 327, N-((1r,4r)-4-(3-aminopropanamido)cyclohexyl)-4-oxo-4H-chromene-2-carboxamide], more than 100 µM.

On to `N[C@H]1CC[C@H](NC(=O)c2cc(O)c3ccccc3n2)CC1` [compound 328, N-((1r,4r)-4-aminocyclohexyl)-4-hydroxyquinoline-2-carboxamide], for which the IC50 was more than 100 µM. The value for `NCCC(=O)N[C@H]1CC[C@H](NC(=O)c2ccc(-n3cnnc3)cc2)CC1` [compound 329, N-((1r,4r)-4-(3-aminopropanamido)cyclohexyl)-4-(4H-1,2,4-triazol-4-yl)benzamide] was more than 100 µM. In the case of `NCCC(=O)N[C@H]1CC[C@H](NC(=O)c2ccc3c(c2)OC(F)(F)O3)CC1` [compound 330, N-((1r,4r)-4-(3-aminopropanamido)cyclohexyl)-2,2-difluorobenzo[d][1,3]dioxole-5-carboxamide], the IC50 was determined as 7.49 µM. With `NCCC(=O)N[C@H]1CC[C@H](NC(=O)c2ccc3c(c2)no[n+]3[O-])CC1` [compound 331, 5-(((1r,4r)-4-(3-aminopropanamido)cyclohexyl)carbamoyl)benzo[c][1,2,5]oxadiazole 1-oxide] the figure was 85.1 µM; with `NCCC(=O)N[C@H]1CC[C@H](NC(=O)c2ccc3nonc3c2)CC1` [compound 332, N-((1r,4r)-4-(3-aminopropanamido)cyclohexyl)benzo[c][1,2,5]oxadiazole-5-carboxamide], more than 100 µM.
